According to PubChem BioAssay AID2060612 (Molecular Pharmacology Branch, DTP, NCI, 2025):

Tested on: 565232-114-T-J1-PDC complex spheroid viability
Test: Anticancer human tumor 565232-114-T-J1-PDC patient-derived bladder carcinoma cell line growth inhibition [CLK]
Details: for IC50: curve of first compound; for viability, T/C: stronger effect = lower value; active = viability on the fitted dose curve at most 10% of control; inactive = the rest
Method in brief: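 Multi-cell-type spheroids combined patient-derived tumor cells with HUVEC endothelial cells and human mesenchymal stem cells. Paired agents were dosed in half-log steps down from about clinical Cmax, or from 10 microM where Cmax was unknown.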

[1] = second compound 0.0316 µM, first compound 0.0316 µM
[2] = second compound 0.0316 µM, first compound 0.1 µM
[3] = second compound 0.0316 µM, first compound 0.316 µM
[4] = second compound 0.0316 µM, first compound 1 µM
[5] = second compound 0.0316 µM, first compound 3.16 µM
[6] = second compound 0.0316 µM, first compound 10 µM
[7] = second compound 0.1 µM, first compound 0.0316 µM
[8] = second compound 0.1 µM, first compound 0.1 µM
[9] = second compound 0.1 µM, first compound 0.316 µM
[10] = second compound 0.1 µM, first compound 1 µM
[11] = second compound 0.1 µM, first compound 3.16 µM
[12] = second compound 0.1 µM, first compound 10 µM
[13] = second compound 0.316 µM, first compound 0.0316 µM
[14] = second compound 0.316 µM, first compound 0.1 µM
[15] = second compound 0.316 µM, first compound 0.316 µM
[16] = second compound 0.316 µM, first compound 1 µM
[17] = second compound 0.316 µM, first compound 3.16 µM
[18] = second compound 0.316 µM, first compound 10 µM
[19] = second compound 1 µM, first compound 0.0316 µM
[20] = second compound 1 µM, first compound 0.1 µM
[21] = second compound 1 µM, first compound 0.316 µM
[22] = second compound 1 µM, first compound 1 µM
[23] = second compound 1 µM, first compound 3.16 µM
[24] = second compound 1 µM, first compound 10 µM
[25] = second compound 3.16 µM, first compound 0.0316 µM
[26] = second compound 3.16 µM, first compound 0.1 µM
[27] = second compound 3.16 µM, first compound 0.316 µM
[28] = second compound 3.16 µM, first compound 1 µM
[29] = second compound 3.16 µM, first compound 3.16 µM
[30] = second compound 3.16 µM, first compound 10 µM
[31] = second compound 10 µM, first compound 0.0316 µM
[32] = second compound 10 µM, first compound 0.1 µM
[33] = second compound 10 µM, first compound 0.316 µM
[34] = second compound 10 µM, first compound 1 µM
[35] = second compound 10 µM, first compound 3.16 µM
[36] = second compound 10 µM, first compound 10 µM
[37] = second compound 0.0316 µM, first compound 0.00316 µM
[38] = second compound 0.0316 µM, first compound 0.01 µM
[39] = second compound 0.1 µM, first compound 0.00316 µM
[40] = second compound 0.1 µM, first compound 0.01 µM
[41] = second compound 0.316 µM, first compound 0.00316 µM
[42] = second compound 0.316 µM, first compound 0.01 µM
[43] = second compound 1 µM, first compound 0.00316 µM
[44] = second compound 1 µM, first compound 0.01 µM
[45] = second compound 3.16 µM, first compound 0.00316 µM
[46] = second compound 3.16 µM, first compound 0.01 µM
[47] = second compound 10 µM, first compound 0.00316 µM
[48] = second compound 10 µM, first compound 0.01 µM
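Note: spheroids exposed to compounds for 7 days before readout.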
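Throughout, for viability, T/C: 100% = DMSO vehicle wells with luminescence normalized to vehicle control.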

CC(=O)O[C@H]1C(=O)[C@@]2(C)[C@H]([C@H](OC(=O)c3ccccc3)[C@]3(O)C[C@H](OC(=O)[C@H](O)[C@@H](NC(=O)c4ccccc4)c4ccccc4)C(C)=C1C3(C)C)[C@]1(OC(C)=O)CO[C@@H]1C[C@@H]2O + CN1CCN(c2cc(C(=O)Nc3cc4cc(-c5cnn(C)c5)ccc4cn3)ccn2)CC1
active: viability, T/C [19] 1.4% | viability, T/C [20] 0.18% | viability, T/C [21] 0.18% | viability, T/C [22] 0.13% | viability, T/C [23] 0.16% | viability, T/C [24] 0.95% | viability, T/C [25] 0.15% | viability, T/C [26] 0.19% | viability, T/C [27] 0.17% | viability, T/C [28] 1.81% | viability, T/C [29] 0.95% | viability, T/C [30] 3.05% | viability, T/C [31] 0.18% | viability, T/C [32] 0.55% | viability, T/C [33] 2.34% | viability, T/C [34] 0.22% | viability, T/C [35] 1.4% | viability, T/C [36] 0.16%
inactive: viability, T/C [1] 33.2% | viability, T/C [2] 17.3% | viability, T/C [3] 18.3% | viability, T/C [4] 16.5% | viability, T/C [5] 21.1% | viability, T/C [6] 20.4% | viability, T/C [7] 25.3% | viability, T/C [8] 23.1% | viability, T/C [9] 20.2% | viability, T/C [10] 16.3% | viability, T/C [11] 17% | viability, T/C [12] 22.6% | viability, T/C [13] 7.34% | viability, T/C [14] 11.6% | viability, T/C [15] 13.5% | viability, T/C [16] 12.6% | viability, T/C [17] 13.7% | viability, T/C [18] 14.9%
< 0.0316 µM: IC50 (second compound 0.0316 µM) | IC50 (second compound 0.1 µM) | IC50 (second compound 0.316 µM) | IC50 (second compound 1 µM) | IC50 (second compound 3.16 µM) | IC50 (second compound 10 µM)

CCc1c2c(nc3ccc(O)cc13)-c1cc3c(c(=O)n1C2)COC(=O)[C@]3(O)CC + CN1CCN(c2cc(C(=O)Nc3cc4cc(-c5cnn(C)c5)ccc4cn3)ccn2)CC1
inactive: viability, T/C [37] 96.6% | viability, T/C [38] 61.8% | viability, T/C [1] 54.6% | viability, T/C [2] 38.5% | viability, T/C [3] 16.3% | viability, T/C [39] 113% | viability, T/C [40] 48.3% | viability, T/C [7] 39.1% | viability, T/C [8] 21.1% | viability, T/C [9] 7.93% | viability, T/C [41] 18.2% | viability, T/C [42] 17.8% | viability, T/C [13] 13.5%
active: viability, T/C [4] 5.15% | viability, T/C [10] 3.53% | viability, T/C [14] 5.02% | viability, T/C [15] 1.56% | viability, T/C [16] 2.33% | viability, T/C [43] 0.86% | viability, T/C [44] 0.17% | viability, T/C [19] 1.6% | viability, T/C [20] 0.24% | viability, T/C [21] 0.5% | viability, T/C [22] 1.14% | viability, T/C [45] 0.22% | viability, T/C [46] 1% | viability, T/C [25] 0.2% | viability, T/C [26] 0.12% | viability, T/C [27] 1.33% | viability, T/C [28] 2.74% | viability, T/C [47] 0.22% | viability, T/C [48] 1.67% | viability, T/C [31] 0.18% | viability, T/C [32] 0.17% | viability, T/C [33] 1.26% | viability, T/C [34] 0.19%
0.0139 µM: IC50 (second compound 0.1 µM)
< 0.00316 µM: IC50 (second compound 0.316 µM) | IC50 (second compound 1 µM) | IC50 (second compound 3.16 µM) | IC50 (second compound 10 µM)
0.036 µM: IC50 (second compound 0.0316 µM)

Cn1ncnc1[C@H]1c2n[nH]c(=O)c3cc(F)cc(c23)N[C@@H]1c1ccc(F)cc1 + CN1CCN(c2cc(C(=O)Nc3cc4cc(-c5cnn(C)c5)ccc4cn3)ccn2)CC1
< 0.000316 µM: IC50 (second compound 0.316 µM) | IC50 (second compound 1 µM) | IC50 (second compound 3.16 µM) | IC50 (second compound 10 µM)
> 0.1 µM: IC50 (second compound 0.0316 µM) | IC50 (second compound 0.1 µM)
active: viability, T/C (second compound 1 µM, first compound 0.000316 µM) 0.16% | viability, T/C (second compound 1 µM, first compound 0.001 µM) 0.26% | viability, T/C [43] 1.61% | viability, T/C [44] 0.19% | viability, T/C [19] 1.31% | viability, T/C [20] 0.83% | viability, T/C (second compound 3.16 µM, first compound 0.000316 µM) 0.42% | viability, T/C (second compound 3.16 µM, first compound 0.001 µM) 0.22% | viability, T/C [45] 2.43% | viability, T/C [46] 0.14% | viability, T/C [25] 1.43% | viability, T/C [26] 2.75% | viability, T/C (second compound 10 µM, first compound 0.000316 µM) 0.15% | viability, T/C (second compound 10 µM, first compound 0.001 µM) 1.85% | viability, T/C [47] 1.09% | viability, T/C [48] 1.69% | viability, T/C [31] 0.53% | viability, T/C [32] 1.35%
inactive: viability, T/C (second compound 0.0316 µM, first compound 0.000316 µM) 100% | viability, T/C (second compound 0.0316 µM, first compound 0.001 µM) 76.1% | viability, T/C [37] 91.5% | viability, T/C [38] 82.1% | viability, T/C [1] 135% | viability, T/C [2] 102% | viability, T/C (second compound 0.1 µM, first compound 0.000316 µM) 86.2% | viability, T/C (second compound 0.1 µM, first compound 0.001 µM) 84.3% | viability, T/C [39] 111% | viability, T/C [40] 112% | viability, T/C [7] 110% | viability, T/C [8] 90.9% | viability, T/C (second compound 0.316 µM, first compound 0.000316 µM) 16.9% | viability, T/C (second compound 0.316 µM, first compound 0.001 µM) 24% | viability, T/C [41] 20.2% | viability, T/C [42] 21.3% | viability, T/C [13] 21.5% | viability, T/C [14] 19.5%

Nc1ccn(C2OC(CO)C(O)C2(F)F)c(=O)n1 (stereo not given) + CN1CCN(c2cc(C(=O)Nc3cc4cc(-c5cnn(C)c5)ccc4cn3)ccn2)CC1
< 0.0316 µM: IC50 (second compound 0.316 µM) | IC50 (second compound 1 µM) | IC50 (second compound 3.16 µM) | IC50 (second compound 10 µM)
0.242 µM: IC50 (second compound 0.1 µM)
0.192 µM: IC50 (second compound 0.0316 µM)
active: viability, T/C [19] 0.16% | viability, T/C [20] 0.19% | viability, T/C [21] 0.2% | viability, T/C [22] 0.11% | viability, T/C [23] 1.16% | viability, T/C [24] 1.27% | viability, T/C [25] 0.18% | viability, T/C [26] 2.52% | viability, T/C [27] 0.18% | viability, T/C [28] 0.15% | viability, T/C [29] 0.92% | viability, T/C [30] 1.45% | viability, T/C [31] 0.18% | viability, T/C [32] 1.54% | viability, T/C [33] 0.18% | viability, T/C [34] 0.17% | viability, T/C [35] 2.1% | viability, T/C [36] 4.24%
inactive: viability, T/C [1] 93.3% | viability, T/C [2] 62.8% | viability, T/C [3] 40.7% | viability, T/C [4] 33.8% | viability, T/C [5] 38% | viability, T/C [6] 38.3% | viability, T/C [7] 112% | viability, T/C [8] 74.6% | viability, T/C [9] 42.3% | viability, T/C [10] 32.8% | viability, T/C [11] 30.2% | viability, T/C [12] 29.7% | viability, T/C [13] 18% | viability, T/C [14] 21.2% | viability, T/C [15] 20.4% | viability, T/C [16] 19% | viability, T/C [17] 16.7% | viability, T/C [18] 17.5%

O=c1[nH]cc(F)c(=O)[nH]1 + CN1CCN(c2cc(C(=O)Nc3cc4cc(-c5cnn(C)c5)ccc4cn3)ccn2)CC1
active: viability, T/C [19] 0.2% | viability, T/C [20] 0.42% | viability, T/C [21] 0.17% | viability, T/C [22] 0.16% | viability, T/C [23] 1.57% | viability, T/C [24] 0.22% | viability, T/C [25] 0.2% | viability, T/C [26] 0.14% | viability, T/C [27] 1.23% | viability, T/C [28] 0.14% | viability, T/C [29] 1.73% | viability, T/C [30] 1.38% | viability, T/C [31] 0.13% | viability, T/C [32] 0.29% | viability, T/C [33] 0.25% | viability, T/C [34] 0.15% | viability, T/C [35] 0.19% | viability, T/C [36] 1.01%
> 10 µM: IC50 (second compound 0.0316 µM) | IC50 (second compound 0.1 µM)
< 0.0316 µM: IC50 (second compound 0.316 µM) | IC50 (second compound 1 µM) | IC50 (second compound 3.16 µM) | IC50 (second compound 10 µM)
inactive: viability, T/C [1] 95.6% | viability, T/C [2] 77.4% | viability, T/C [3] 105% | viability, T/C [4] 106% | viability, T/C [5] 123% | viability, T/C [6] 113% | viability, T/C [7] 90.5% | viability, T/C [8] 83.1% | viability, T/C [9] 101% | viability, T/C [10] 130% | viability, T/C [11] 171% | viability, T/C [12] 120% | viability, T/C [13] 16.8% | viability, T/C [14] 18.7% | viability, T/C [15] 22.1% | viability, T/C [16] 22.7% | viability, T/C [17] 19.2% | viability, T/C [18] 17.1%
